ChEMBL document CHEMBL1255329, “Effect of polysorbate 80 on oritavancin binding to plastic surfaces: implications for susceptibility testing” (2008)

Legend:
Type in all cases: functional
Enterococcus faecalis [1] = test: Antibacterial activity against Enterococcus faecalis ATCC 29212 in CAMHB medium by broth microdilution method in absence of 0.002% polysorbate 80
Enterococcus faecalis [2] = test: Antibacterial activity against Enterococcus faecalis ATCC 29212 in CAMHB medium containing 2% LHB by broth microdilution method in presence of 0.002% polysorbate 80
Enterococcus faecalis [3] = test: Antibacterial activity against Enterococcus faecalis ATCC 29212 in CAMHB medium containing 2% LHB by broth microdilution method in absence of 0.002% polysorbate 80
Streptococcus pneumoniae [4] = test: Antibacterial activity against Streptococcus pneumoniae ATCC 49619 in CAMHB medium containing 2% LHB by broth microdilution method in presence of 0.002% polysorbate 80
Streptococcus pneumoniae [5] = test: Antibacterial activity against Streptococcus pneumoniae ATCC 49619 in CAMHB medium containing 2% LHB by broth microdilution method in absence of 0.002% polysorbate 80
Streptococcus pneumoniae [6] = test: Antibacterial activity against Streptococcus pneumoniae ATCC 49619 in BHI broth by broth microdilution method in presence of 0.002% polysorbate 80
Streptococcus pneumoniae [7] = test: Antibacterial activity against Streptococcus pneumoniae ATCC 49619 in BHI broth by broth microdilution method in absence of 0.002% polysorbate 80
Streptococcus pneumoniae [8] = test: Antibacterial activity against Streptococcus pneumoniae ATCC 49619 in BHI broth containing 2% LHB by broth microdilution method in presence of 0.002% polysorbate 80
Streptococcus pneumoniae [9] = test: Antibacterial activity against Streptococcus pneumoniae ATCC 49619 in BHI broth containing 2% LHB by broth microdilution method in absence of 0.002% polysorbate 80
Enterococcus faecalis [10] = test: Antibacterial activity against Enterococcus faecalis clinical isolate by broth microdilution method in presence of 0.002% polysorbate 80
Enterococcus faecalis [11] = test: Antibacterial activity against Enterococcus faecalis clinical isolate by broth microdilution method
Enterococcus faecium [12] = test: Antibacterial activity against Enterococcus faecium clinical isolate by broth microdilution method in presence of 0.002% polysorbate 80
Enterococcus faecium [13] = test: Antibacterial activity against Enterococcus faecium clinical isolate by broth microdilution method
Staphylococcus aureus [14] = test: Antibacterial activity against Staphylococcus aureus clinical isolate by broth microdilution method in presence of 0.002% polysorbate 80
Staphylococcus aureus [15] = test: Antibacterial activity against Staphylococcus aureus clinical isolate by broth microdilution method
Staphylococcus [16] = test: Antibacterial activity against coagulase-negative Staphylococcus clinical isolate by broth microdilution method in presence of 0.002% polysorbate 80
Staphylococcus [17] = test: Antibacterial activity against coagulase-negative Staphylococcus clinical isolate by broth microdilution method
Streptococcus agalactiae [18] = test: Antibacterial activity against Streptococcus agalactiae clinical isolate using 2% LHB by broth microdilution method in presence of 0.002% polysorbate 80
Streptococcus agalactiae [19] = test: Antibacterial activity against Streptococcus agalactiae clinical isolate using 2% LHB by broth microdilution method
Streptococcus pneumoniae [20] = test: Antibacterial activity against Streptococcus pneumoniae clinical isolate by broth microdilution method in presence of 0.002% polysorbate 80
Streptococcus pneumoniae [21] = test: Antibacterial activity against Streptococcus pneumoniae clinical isolate by broth microdilution method
Streptococcus pyogenes [22] = test: Antibacterial activity against Streptococcus pyogenes clinical isolate by broth microdilution method in presence of 0.002% polysorbate 80
Streptococcus pyogenes [23] = test: Antibacterial activity against Streptococcus pyogenes clinical isolate by broth microdilution method
Streptococcus viridans [24] = test: Antibacterial activity against Streptococcus viridans group clinical isolate by broth microdilution method in presence of 0.002% polysorbate 80
Streptococcus viridans [25] = test: Antibacterial activity against Streptococcus viridans group clinical isolate by broth microdilution method
[26] = Antibacterial activity against Streptococcus Group C clinical isolate by broth microdilution method in presence of 0.002% polysorbate 80; settings: Streptococcus sp. 'group C'
[27] = Antibacterial activity against Streptococcus Group G clinical isolate by broth microdilution method in presence of 0.002% polysorbate 80; settings: Streptococcus sp. 'group G'
[28] = Antibacterial activity against Streptococcus Group C clinical isolate by broth microdilution method; settings: Streptococcus sp. 'group C'
[29] = Antibacterial activity against Streptococcus Group G clinical isolate by broth microdilution method; settings: Streptococcus sp. 'group G'
Enterococcus faecalis [30] = test: Ratio of MIC for Enterococcus faecalis clinical isolate to MIC for Enterococcus faecalis clinical isolate in presence of 0.002% polysorbate 80
Enterococcus faecium [31] = test: Ratio of MIC for Enterococcus faecium clinical isolate to MIC for Enterococcus faecium clinical isolate in presence of 0.002% polysorbate 80
Staphylococcus aureus [32] = test: Ratio of MIC for Staphylococcus aureus clinical isolate to MIC for Staphylococcus aureus clinical isolate in presence of 0.002% polysorbate 80
Staphylococcus [33] = test: Ratio of MIC for coagulase-negative Staphylococcus clinical isolate to MIC for coagulase-negative Staphylococcus clinical isolate in presence of 0.002% polysorbate 80
Streptococcus agalactiae [34] = test: Ratio of MIC for Streptococcus agalactiae clinical isolate to MIC for Streptococcus agalactiae clinical isolate in presence of 0.002% polysorbate 80
Streptococcus pneumoniae [35] = test: Ratio of MIC for Streptococcus pneumoniae clinical isolate to MIC for Streptococcus pneumoniae clinical isolate in presence of 0.002% polysorbate 80
Streptococcus pyogenes [36] = test: Ratio of MIC for Streptococcus pyogenes clinical isolate to MIC for Streptococcus pyogenes clinical isolate in presence of 0.002% polysorbate 80
Streptococcus viridans [37] = test: Ratio of MIC for Streptococcus viridans group clinical isolate to MIC for Streptococcus viridans group clinical isolate in presence of 0.002% polysorbate 80
Staphylococcus aureus [38] = test: Antibacterial activity against Staphylococcus aureus ATCC 29213 in CAMHB medium by broth microdilution method in presence of 0.002% polysorbate 80
Staphylococcus aureus [39] = test: Antibacterial activity against Staphylococcus aureus ATCC 29213 in CAMHB medium by broth microdilution method in absence of 0.002% polysorbate 80
Staphylococcus aureus [40] = test: Antibacterial activity against Staphylococcus aureus ATCC 29213 in CAMHB medium containing 2% LHB by broth microdilution method in presence of 0.002% polysorbate 80
Staphylococcus aureus [41] = test: Antibacterial activity against Staphylococcus aureus ATCC 29213 in CAMHB medium containing 2% LHB by broth microdilution method in absence of 0.002% polysorbate 80
Enterococcus faecalis [42] = test: Antibacterial activity against Enterococcus faecalis ATCC 29212 in CAMHB medium by broth microdilution method in presence of 0.002% polysorbate 80
Staphylococcus aureus [43] = test: Antibacterial activity against Staphylococcus aureus ATCC 29213 assessed as reduction in compound MIC by broth microdilution method in presence of 0.002% polysorbate 80 in solvent
Staphylococcus aureus [44] = test: Antibacterial activity against Staphylococcus aureus ATCC 29213 assessed as reduction in compound MIC by broth microdilution method in presence of 0.002% polysorbate 80 in inoculum

CC(=O)N[C@@H]1[C@H](Oc2c3cc4cc2Oc2ccc(cc2Cl)[C@@H](O[C@@H]2O[C@@H](CO)[C@@H](O)[C@H](O)[C@@H]2NC(C)=O)[C@@H]2NC(=O)[C@H](NC(=O)[C@@H]4NC(=O)[C@H]4NC(=O)[C@@H](Cc5ccc(c(Cl)c5)O3)NC(=O)[C@H](N)c3ccc(O)c(c3)Oc3cc(O)cc4c3)c3ccc(O)c(c3)-c3c(O[C@H]4O[C@H](CO)[C@@H](O)[C@@H](O)[C@@H]4O)cc(O)cc3[C@@H](C(=O)O)NC2=O)O[C@@H](CO)[C@@H](O)[C@@H]1O
0.06 µg/mL: MIC90 (Streptococcus agalactiae [18]) | MIC90 (Streptococcus agalactiae [19]) | MIC (Streptococcus pneumoniae [20]) | MIC90 (Streptococcus pneumoniae [20]) | MIC (Streptococcus pneumoniae [21]) | MIC90 (Streptococcus pneumoniae [21]) | MIC90 (Streptococcus pyogenes [23])
0.03 µg/mL: MIC (Streptococcus pneumoniae [4]) | MIC (Streptococcus pneumoniae [5]) | MIC (Streptococcus pneumoniae [6]) | MIC (Streptococcus pneumoniae [7]) | MIC (Streptococcus pneumoniae [8]) | MIC (Streptococcus pneumoniae [9]) | MIC90 (Streptococcus pyogenes [22]) | MIC [26] | MIC [27] | MIC [28] | MIC [29]
1: Ratio (Staphylococcus aureus [32]) | Ratio (Staphylococcus [33]) | Ratio (Streptococcus agalactiae [34]) | Ratio (Streptococcus pneumoniae [35])
64 µg/mL: MIC90 (Enterococcus faecium [13])
0.5 µg/mL: MIC (Enterococcus faecalis [1]) | MIC (Enterococcus faecalis [2]) | MIC90 (Enterococcus faecalis [11]) | MIC90 (Staphylococcus aureus [14]) | MIC90 (Staphylococcus aureus [15]) | MIC (Staphylococcus aureus [38]) | MIC (Staphylococcus aureus [39]) | MIC (Staphylococcus aureus [40]) | MIC (Enterococcus faecalis [42])
2 µg/mL: MIC90 (Staphylococcus [16]) | MIC90 (Staphylococcus [17])
0.5: Ratio (Enterococcus faecium [31]) | Ratio (Streptococcus viridans [37])
0.12 µg/mL: MIC90 (Enterococcus faecalis [10]) | MIC90 (Streptococcus viridans [24]) | MIC90 (Streptococcus viridans [25])
4: Ratio (Enterococcus faecalis [30])
2: Ratio (Streptococcus pyogenes [36])
1 µg/mL: MIC (Enterococcus faecalis [3]) | MIC (Staphylococcus aureus [41])
128 µg/mL: MIC90 (Enterococcus faecium [12])

O=C(O)c1cn(C2CC2)c2cc(N3CCNCC3)c(F)cc2c1=O [CIPROFLOXACIN]
0.5 µg/mL: MIC (Enterococcus faecalis [1]) | MIC (Enterococcus faecalis [2]) | MIC (Enterococcus faecalis [3]) | MIC (Staphylococcus aureus [38]) | MIC (Staphylococcus aureus [39]) | MIC (Staphylococcus aureus [40]) | MIC (Staphylococcus aureus [41]) | MIC (Enterococcus faecalis [42])
1 µg/mL: MIC (Streptococcus pneumoniae [4]) | MIC (Streptococcus pneumoniae [8])

CN[C@H](CC(C)C)C(=O)N[C@H]1C(=O)N[C@@H](CC(N)=O)C(=O)N[C@H]2C(=O)N[C@H]3C(=O)N[C@H](C(=O)N[C@H](C(=O)O)c4cc(O)cc(O)c4-c4cc3ccc4O)[C@H](O[C@H]3C[C@](C)(N)[C@@H](O)[C@H](C)O3)c3ccc(c(Cl)c3)Oc3cc2cc(c3O[C@@H]2O[C@H](CO)[C@@H](O)[C@H](O)[C@H]2O[C@H]2C[C@](C)(NCc3ccc(-c4ccc(Cl)cc4)cc3)[C@@H](O)[C@H](C)O2)Oc2ccc(cc2Cl)[C@H]1O [ORITAVANCIN]
1: Ratio (Streptococcus pneumoniae [35]) | Ratio (Streptococcus pyogenes [36]) | Ratio (Streptococcus viridans [37])
0.03 µg/mL: MIC (Enterococcus faecalis [2]) | MIC (Staphylococcus aureus [38]) | MIC (Staphylococcus aureus [40]) | MIC (Staphylococcus aureus [41]) | MIC (Enterococcus faecalis [42])
1 µg/mL: MIC90 (Streptococcus agalactiae [19]) | MIC90 (Streptococcus viridans [24]) | MIC90 (Streptococcus viridans [25]) | MIC (Staphylococcus aureus [39])
0.12 µg/mL: MIC90 (Enterococcus faecalis [10]) | MIC90 (Staphylococcus aureus [14])
16: fold change (FC) (Staphylococcus aureus [43]) | Ratio (Enterococcus faecalis [30]) | Ratio (Enterococcus faecium [31]) | Ratio (Staphylococcus [33])
0.001 µg/mL: MIC (Streptococcus pneumoniae [5]) | MIC (Streptococcus pneumoniae [6]) | MIC (Streptococcus pneumoniae [8]) | MIC (Streptococcus pneumoniae [9])
0.002 µg/mL: MIC (Streptococcus pneumoniae [4])
4 µg/mL: MIC90 (Enterococcus faecium [13]) | MIC90 (Staphylococcus aureus [15]) | MIC90 (Staphylococcus [17])
0.008 µg/mL: MIC (Streptococcus pneumoniae [7])
4: fold change (FC) (Staphylococcus aureus [44])
32: Ratio (Staphylococcus aureus [32])
0.5 µg/mL: MIC (Enterococcus faecalis [1])
0.016 µg/mL: MIC (Enterococcus faecalis [3])
0.004 µg/mL: MIC90 (Streptococcus pneumoniae [20]) | MIC90 (Streptococcus pneumoniae [21]) | MIC [26] | MIC [27] | MIC [28] | MIC [29]
0.25 µg/mL: MIC90 (Enterococcus faecium [12]) | MIC90 (Staphylococcus [16]) | MIC90 (Streptococcus agalactiae [18]) | MIC90 (Streptococcus pyogenes [22]) | MIC90 (Streptococcus pyogenes [23])
2 µg/mL: MIC90 (Enterococcus faecalis [11])

CN[C@H](CC(C)C)C(=O)N[C@H]1C(=O)N[C@@H](CC(N)=O)C(=O)N[C@H]2C(=O)N[C@H]3C(=O)N[C@H](C(=O)N[C@H](C(=O)O)c4cc(O)cc(O)c4-c4cc3ccc4O)[C@H](O)c3ccc(c(Cl)c3)Oc3cc2cc(c3O[C@@H]2O[C@H](CO)[C@@H](O)[C@H](O)[C@H]2O[C@H]2C[C@](C)(N)[C@H](O)[C@H](C)O2)Oc2ccc(cc2Cl)[C@H]1O [VANCOMYCIN]
2 µg/mL: MIC (Enterococcus faecalis [3]) | MIC90 (Enterococcus faecalis [10]) | MIC90 (Enterococcus faecalis [11]) | MIC90 (Staphylococcus [16])
1 µg/mL: MIC90 (Staphylococcus aureus [14]) | MIC90 (Staphylococcus aureus [15]) | MIC90 (Staphylococcus [17])
0.25 µg/mL: MIC (Streptococcus pneumoniae [4]) | MIC (Streptococcus pneumoniae [5]) | MIC (Streptococcus pneumoniae [6]) | MIC (Streptococcus pneumoniae [7]) | MIC (Streptococcus pneumoniae [8]) | MIC (Streptococcus pneumoniae [9]) | MIC90 (Streptococcus pneumoniae [20]) | MIC90 (Streptococcus pneumoniae [21]) | MIC (Streptococcus pyogenes [22]) | MIC90 (Streptococcus pyogenes [22]) | MIC (Streptococcus pyogenes [23]) | MIC90 (Streptococcus pyogenes [23]) | MIC [27] | MIC [29]
> 256 µg/mL: MIC90 (Enterococcus faecium [12]) | MIC90 (Enterococcus faecium [13])
0.5 µg/mL: MIC90 (Streptococcus agalactiae [18]) | MIC90 (Streptococcus agalactiae [19]) | MIC90 (Streptococcus viridans [24]) | MIC90 (Streptococcus viridans [25])
0.12 µg/mL: MIC [26] | MIC [28]
